Assay results reported in paper PMC8012336, “An automated and high-throughput-screening compatible pluripotent stem cell-based test platform for developmental and reproductive toxicity assessment of small molecule compounds” (Cell Biology and Toxicology, 2020).
≈ marks a conversion by molar mass, not a printed value.

Tests used:
[1] = Automated CellTiter-Glo luminescent cell viability (cytotoxicity) assay, 5 d; details: mouse
Protocol: (§1) The CellTiter-Glo® luminescent cell viability assay (Promega, Cat. No. G7573) was automated in 96-well format on the lab automation platform Fluent® (Tecan, Männedorf, Switzerland). The procedure allowed the testing of six compounds in mESC-D3 and NIH/3T3 cells in parallel. On the first day, PBS was dispensed into the peripheral wells of the assay plates (200 μl/well) using the Multiple Channel Arm (MCA). Mouse ES-D3 and NIH/3T3 cells were plated (50 μl/well, 1 × 10^4 cells/ml)) using the Flexible Channel Arm (FCA) and transported into the Cytomat™ 10 (Thermo Fisher Scientific) for incubation using the Robotic Gripper Arm (RGA). A 7-point dilution series of the test compounds and control solutions were prepared in PBS or DMSO (Carl Roth, Cat. No. HN47.1) under the laminar flow, transferred to a 96-well 0.5-ml Masterblock plate (Greiner bio-one, Cat. No. 786261) and placed on the worktable. On the Fluent the compounds were transferred to a 96-well 2-ml Masterblock plate (Greiner bio-one, Cat. No. 780271) and further diluted in growth media using the FCA. Two hours after cell plating compounds and controls were transferred to the assay plate with the FCA (150 μl/well) and transported back in the Cytomat 10. On day three of the assay, the media was exchanged using the MCA: old media was aspirated and dispensed into a 96-deep-well plate (“waste”), freshly prepared compound, and control solution was dispensed into the assay plate. After two more days of incubation, the cell viability was determined using the CellTiter-Glo assay. The assay plates were transported from the Cytomat 10 to the Carousel (Tecan) to adapt to room temperature. After 25 min the cell supernatant was removed partially (80 μl/well) and CellTiter-Glo reagent was dispensed (50 μl/well). The assay plate was placed on a shaker for 1 min and afterward incubated 25 min in the Carousel before the Luminescence signal was detected on the Infinite M1000 Pro plate reader (Tecan).
(§2) Toxicity data from the MTT and CellTiter-Glo Assay was normalized against the vehicle control (100% viability) and plotted against the logarithmic compound concentration.

[2] = Manual MTT cell viability assay, 7 d; format: cell-based, mouse; details: mouse, manual, in brackets the two individual experiments
Protocol: (§3) The MTT cell viability assay was performed as described (Seiler and Spielmann [2011]) with modifications. In brief, 96-well cell culture plates were coated with gelatin (0.1%) before plating mESC-D3. All peripheral wells of the assay plate were filled with 200 μl growth media (“blank”). Afterward, NIH/3T3 and mESC-D3 were plated in growth media (1 × 10^4 cells/ml, 50 μl/well). […] Vehicle (PBS) and positive control (5-fluorouracil) wells were also included on all assay plates. Three and 5 days after seeding the cell supernatant was replaced by freshly prepared compound solution (200 μl/well). Seven days after seeding the cell viability was detected. Therefore, the cell supernatant was aspirated from all wells, MTT solution (5 mg/ml) was added (20 μl/well) and the assay plate was incubated for 2 h at 37 °C and 5% CO2 in a humidified atmosphere. Afterward, all liquid was removed from the wells and MTT desorb solution (0.7% SDS in 2-propanol (Carl Roth, Cat. No. 9866.5), pre-warmed to 37 °C) was dispensed (130 μl/well). The assay plate was placed on a shaker for 15 min. Remaining precipitates were suspended by pipetting up and down with a multichannel pipette before measuring the absorption at 570 nm on a microtiter plate reader using 630 nm as a reference wavelength.
as §2

[3] = Manual CellTiter-Glo luminescent cell viability assay (7 d or 5 d); format: cell-based, mouse; details: mouse, in brackets the two individual experiments
Protocol: (§4) 96-well cell culture plates were coated with gelatin (0.1%) before plating mESC-D3. All peripheral wells of the assay plate were filled with 200 μl growth media. In order to assess compound toxicity on mESC-D3 and NIH/3T3 cells, cell suspensions of NIH/3T3, and mESC-D3 were prepared in growth media (1 × 10^4 cells/ml) and were transferred to all remaining wells (50 μl/well). A 7-point dilution series in growth media was prepared for each test compound and was transferred to the assay plate 2 h after cell seeding (150 μl/well). Afterward, the cells were incubated in a humidified atmosphere at 37 °C and 5% CO2. Three and 5 days after seeding the cell supernatant was replaced by freshly prepared compound solution (200 μl/well). […] The assay plate was placed on a shaker for 1 min and after another 10 min incubation at room temperature in the dark the luminescence signal was detected on a plate reader.
as §2

NIH/3T3 [4] = assay: Automated CellTiter-Glo luminescent cell viability (cytotoxicity) assay, 5 d
Protocol: as §1, §2

mESC-D3 [5] = assay: as above
Protocol: as §1, §2

NIH/3T3 [6] = assay: Manual MTT cell viability assay, 7 d; format: cell-based, mouse
Protocol: as §3, §2

mESC-D3 [7] = assay: Manual MTT cell viability assay, 7 d; format: cell-based, mouse
Protocol: as §3, §2

NIH/3T3 [8] = assay: Manual CellTiter-Glo luminescent cell viability assay (7 d or 5 d); format: cell-based, mouse; details: in brackets the two individual experiments
Protocol: as §4, §2

mESC-D3 [9] = assay: as above; format: cell-based, mouse; details: in brackets the two individual experiments
Protocol: as §4, §2

[10] = system: HDFf (human dermal fibroblasts of fetal origin); assay: Manual human EST cytotoxicity assay, MTT, 5 d
Protocol: (§5) The cytotoxicity assessment with a reduced assay time of 5 days combined with either NADH- or ATP-based detection was also carried out with human induced pluripotent stem cells (hiPSCs). […] Furthermore, differences in the cytotoxicity effects between the hiPSCs and HDFfs were more pronounced than in the mouse cells. Similar to the cytotoxicity-based assay the overall variance in the data is reduced when viability data was obtained by an ATP-based read-out.
as §3
(§6) Figure S1: Step-wise evolution of the cytotoxicity assay towards the use of human cell lines. Related to Figure 2. Cytotoxicity assays were carried out with two compound sets on hiPSC line ZIPi013-E and HDFf, from which they were derived. […] A) 5 day MTT assay and manual handling. B) As in A), but using CellTiter-Glo® viability assay. All points in the graph represent the mean of 6 individual data points, including the standard error.

hiPSC line ZIPi013-E = assay: Manual human EST cytotoxicity assay, MTT, 5 d
Protocol: as §5, §3, §6

| Compound | IC50 at 5 d ([1]; NIH/3T3 cells) | IC50 at 5 d ([1]; mESC-D3 cells (mouse embryonic stem cells)) | IC50 at 7 d ([2]; NIH/3T3 cells, read-out: Cytotoxicity assay MTT, 7 d IC50 NIH/3T3) | IC50 at 7 d ([2]; mESC-D3 cells, read-out: Cytotoxicity assay MTT, 7 d IC50 mESC-D3) | IC50 at 5 d ([3]; NIH/3T3 cells, read-out: Cytotoxicity assay CTG, 5 d IC50 NIH/3T3) | IC50 at 7 d ([3]; NIH/3T3 cells, read-out: Cytotoxicity assay CTG, 7 d IC50 NIH/ 3T3) | IC50 at 5 d ([3]; mESC-D3 cells, read-out: Cytotoxicity assay CTG, 5 d IC50 mESC-D3) | IC50 at 7 d ([3]; mESC-D3 cells, read-out: Cytotoxicity assay CTG, 7 d IC50 mESC-D3) | Cytotoxicity assay CTG, 5 d IC50 NIH/3T3 (NIH/3T3 [4]) | Cytotoxicity assay CTG, 5 d IC50 mESC-D3 (mESC-D3 [5]) | Cytotoxicity assay MTT, 7 d IC50 NIH/3T3 (NIH/3T3 [6]) | Cytotoxicity assay MTT, 7 d IC50 mESC-D3 (mESC-D3 [7]) | Cytotoxicity assay CTG, 5 d IC50 NIH/3T3 (NIH/3T3 [8]; 5 d) | Cytotoxicity assay CTG, 7 d IC50 NIH/ 3T3 (NIH/3T3 [8]; 7 d) | Cytotoxicity assay CTG, 5 d IC50 mESC-D3 (mESC-D3 [9]; 5 d) | Cytotoxicity assay CTG, 7 d IC50 mESC-D3 (mESC-D3 [9]; 7 d) | Cytotoxicity assay MTT, 5 d IC50 HDFf [10] | Cytotoxicity assay MTT, 5 d IC50 ZIPi013-E (hiPSC line ZIPi013-E) |
| --- | --- | --- | --- | --- | --- | --- | --- | --- | --- | --- | --- | --- | --- | --- | --- | --- | --- | --- |
| O=C1NS(=O)(=O)c2ccccc21 [Saccharin, saccharin] | > 1000 µg/mL | 393 µg/mL (≈ 2.15 mM) | > 1000 µg/mL | > 1000 µg/mL | > 1000 µg/mL | > 1000 µg/mL | 464 µg/mL (≈ 2.53 mM) | > 1000 µg/mL |  |  |  |  |  |  |  |  |  |  |
| NC(=O)NO [Hydroxyurea, hydroxyurea] |  |  |  |  |  |  |  |  | 4.01 (3.97; 4.06) μg/ml | 2.28 (1.69; 2.87) μg/ml | 2.17 (1.81; 2.53) µg/ml | 2.11 (2.08; 2.15) µg/ml | 3.12 (> 10; 3.12) µg/ml | 4.83 (> 10; 4.83) µg/ml | 3.19 (4.12; 2.26) µg/ml | 2.37 (2.28; 2.46) µg/ml | 4.005 µg/mL | 0.3326 µg/mL |
